Test results published in PMC5786306, “An AKAP-Lbc-RhoA interaction inhibitor promotes the translocation of aquaporin-2 to the plasma membrane of renal collecting duct principal cells” (PLoS ONE, 2018).
Values belong to the molecule of their own block, whether it stands above or below them.

How the values were obtained:
[1] = tested on: AQP2 localization and F-actin in primary IMCD cells; experiment: Immunofluorescence microscopy of AQP2 and F-actin in primary IMCD cells; format: cell-based, rat
From the text: Primary rat renal inner medullary collecting duct (IMCD) cells were obtained and cultured as previously described. AQP2 was detected with specific rabbit (H27 antibody) and secondary Cy3-coupled antibodies, and F-actin was visualized with Alexa Fluor 647-Phalloidin by laser scanning microscopy (LSM780; Zeiss Jena, Germany) as described.
Fig 8 Scaff10-8 promotes the redistribution of AQP2 to the plasma membrane of primary IMCD cells, which is independent of cAMP elevation and associated with depolymerization of F-actin. (A) Upper panel. IMCD cells were treated with DMSO (1%; control), the solvent of Scaff10-8, or forskolin (10 μM, 30 min) to stimulate cAMP synthesis. Lower panels: The cells were treated for 1 hour with Scaff10-8 (30 μM) alone (control) or with Scaff10-8 and forskolin. Forskolin (10 μM) was added for the final 30 min of Scaff10-8 incubation. AQP2 (green) was detected with specific primary and Cy3-coupled secondary antibodies, F-actin (red) with Alexa Fluor 647-Phalloidin and nuclei with DAPI (blue). Signals were visualized using a laser scanning microscope. Representative images are shown. n = 3. The magnified views were derived from the indicated boxes. (B) The signal intensities arising from intracellular and plasma membrane AQP2 were recorded, related to nuclear signal intensities, and the ratios of plasma membrane to intracellular fluorescence signal intensities were calculated (n = 30 cells per condition). Ratios > 1 indicate a predominant localization of AQP2 at the plasma membrane. Statistically significant differences were calculated using one-way ANOVA with posthoc Bonferroni. Mean ± SEM; *, p ≤ 0.05; *** p ≤ 0.001.

[2] = tested on: AQP2 insertion into the plasma membrane of IMCD cells; experiment: Biotinylation of cell surface proteins; format: cell-based, rat; details: Scaff10-8 30 μM, 1 or 24 h, forskolin 30 μM, 30 min
Experimental: The assay was performed according to Bogum et al.. IMCD cells were treated with Scaff10-8 at a concentration of 30 μM for 1 or 24 h (0.3% DMSO final concentration). DMSO (0.3%) was used as a control for the 24 h of incubation. Cells were stimulated with forskolin (30 min, 30 μM). Cells were washed twice with ice-cold PBS and incubated with biotinylation buffer (500 μg Biotin per well; 10 mM triethanolamine; 150 mM NaCl; 1 mM MgCl2; 0.1 mM CaCl2; pH 8.0) for 60 min at 4°C. After two washing steps with biotinylation buffer, cells were incubated for 10 min with quenching buffer (50 mM NH4Cl in PBS) at 4°C. Lysates were prepared using biotinylation lysis buffer 1 (SLB; 0.5% Triton X-100; 0.2% BSA; Complete mini EDTA-free). Lysates were sonicated and incubated for 20 min at 37°C. Cell debris was removed by centrifugation (30 min, 15,000x g, 4°C). Lysates were incubated with 80 μl streptavidin agarose beads at 4°C overnight. Beads were washed three times with biotinylation lysis buffer 1 and 2 (SLB; 0.5% Triton X-100; Complete mini EDTA-free). Proteins were eluted using sample buffer and analyzed by Western blotting.
(A) IMCD cells were treated with either compound (30 μM) or DMSO for 1 or 24 h. Membrane proteins were biotinylated followed by precipitation with streptavidin agarose beads. […] (B) Signals from A were quantified by densitometric analysis. […]

[3] = tested on: hypercholesterolemic patients; design: method as in PMID 26575415, PMID 21858457; details: cited from earlier work
[4] = molecular target: T1, untagged RhoA (human, UniProt P61586 1-193); experiment: MST; GFP-AKAP-Lbc/DHPH constant at 150 nM, unlabeled RhoA titrated 36.01 nM-590 uM in MST buffer; 1 h at room temperature; Monolith NT.115; details: both partners purified
T1 construct: RhoA; also called unlabeled RhoA; source: recombinant, purified
T1 sequence (P61586 whole entry): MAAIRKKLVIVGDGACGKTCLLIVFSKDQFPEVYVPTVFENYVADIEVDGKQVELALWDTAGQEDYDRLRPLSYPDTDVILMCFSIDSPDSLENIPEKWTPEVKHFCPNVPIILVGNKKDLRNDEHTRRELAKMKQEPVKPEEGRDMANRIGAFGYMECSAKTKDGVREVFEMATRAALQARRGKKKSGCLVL

Molecule: C=C[C@@]1(C)CC(=O)[C@]2(O)[C@@]3(C)[C@@H](O)CCC(C)(C)[C@@H]3[C@H](O)[C@H](OC(C)=O)[C@@]2(C)O1 [forskolin, reference compound]
- F-actin ([1]; Scaff10-8 30 μM alone, forskolin alone): caused depolymerization
- localization of AQP2 ([1]; Scaff10-8 30 μM, 1 h, no forskolin, forskolin 10 μM, 30 min): induced its redistribution to the plasma membrane
- insertion of AQP2 into the plasma membrane [2]: induced the membrane insertion of AQP2

Molecule: CCC(C)(C)C(=O)O[C@H]1C[C@@H](C)C=C2C=C[C@H](C)[C@H](CC[C@@H]3C[C@@H](O)CC(=O)O3)[C@H]21 [simvastatin]
- diuresis and urine osmolality [3]: reduced diuresis and increased urine osmolality

- Kd [4]: 42 µM
B1: GFP-AKAP-Lbc/DHPH (domain or fragment)
chain: EAESWSRIIDSKFLKQQKKDVVKRQEVIYELMQTEFHHVRTLKIMSGVYSQGMMADLLFEQQMVEKLFPCLDELISIHSQFFQRILERKKESLVDKSEKNFLIKRIGDVLVNQFSGENAERLKKTYGKFCGQHNQSVNYFKDLYAKDKRFQAFVKKKMSSSVVRRLGIPECILLVTQRITKYPVLFQRILQCTKDNEVEQEDLAQSLSLVKDVIGAVDSKVASYEKKVRLNEIYTKTDSKSIMRMKSGQMFAKEDLKRKKLVRDGSVFLKNAAGRLKEVQAVLLTDILVFLQEKDQKYIFASLDQKSTVISLKKLIVREVAHEEKGLFLISMGMTDPEMVEVHASSKEERNSWIQIIQDTINTL
modifications: GFP and His6 tags left out. Limits are codons 1972-2335, from bp 5,914-7,005 of CCDS32320.1 (human CDS); the nucleotide changes only removed rare codons. The range encloses the annotated DH …
